Data published in patent publication US11590116B2 (THERAVANCE BIOPHARMA R&D IP, LLC, priority 2019, dated 2023).

What was measured:
[1] = test system: TGF-β-stimulated SMAD3 phosphorylation in BEAS-2B cells; assay: Cellular ALK5 potency assay, inhibition of TGF-β stimulated pSMAD3 formation in BEAS-2B cells; format: cell-based; conditions: Homo sapiens; inhibition of TGF-β stimulated pSMAD3 formation, BEAS-2B cells; read-out: BEAS2B pIC50 (converted)
Summary of the method: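 AlphaLISA pSMAD3 read-out, beads incubated overnight. Human BEAS-2B cells: 1 h compound preincubation (37 °C, 5% CO2), then 30 min TGF-β at 10 ng/mL final, immediate lysis. Values are pIC50 relative to stimulated, compound-free baseline.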

[2] = target: T1, recombinant human ALK5 (TGF-βR1) protein (Homo sapiens, UniProt P36897); assay: Biochemical ALK5 (TGF-βR1) assay to measure pKi (LANCE Ultra ULight kinase assay); conditions: apparent pKi from pIC50 by Cheng-Prusoff, read-out: ALK5 pKi (converted)
T1 construct: purchased Life Technologies PR9075A
T1 sequence (P36897 34-503): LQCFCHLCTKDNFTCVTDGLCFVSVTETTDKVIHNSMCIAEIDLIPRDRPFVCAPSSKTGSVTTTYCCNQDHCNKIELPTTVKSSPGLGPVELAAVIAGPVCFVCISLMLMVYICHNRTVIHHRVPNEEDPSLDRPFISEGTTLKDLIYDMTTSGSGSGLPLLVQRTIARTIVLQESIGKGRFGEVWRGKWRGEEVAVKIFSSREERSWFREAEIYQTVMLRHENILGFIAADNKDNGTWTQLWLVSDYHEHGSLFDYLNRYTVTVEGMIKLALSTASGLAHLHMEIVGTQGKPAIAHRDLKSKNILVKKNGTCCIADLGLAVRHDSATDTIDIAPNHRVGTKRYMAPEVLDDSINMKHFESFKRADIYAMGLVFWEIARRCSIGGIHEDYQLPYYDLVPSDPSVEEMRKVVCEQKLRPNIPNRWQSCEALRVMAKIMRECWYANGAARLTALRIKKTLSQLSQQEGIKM
Summary of the method: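 Compounds (10 μM to 25 pM) preincubated 60 minutes at room temperature with enzyme, then reaction run 60 minutes at 37° C with ATP added as 125 μM (5× final). Stopped with EDTA plus Eu-anti-phospho-Topoisomerase 2-alpha (Thr1342) antibody, TR-FRET read at 665 nm; pIC50 converted to pKi via Cheng-Prusoff.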

| Compound | IC50 [1] | Ki [2] |
| --- | --- | --- |
| CCN1CCC(N(C)c2cnc3ccc(-c4c[nH]nc4-c4cccc(C)n4)nc3c2)CC1 [Compound 662, N-(1-ethyl-4-piperidyl)-N-methyl-6-[3-(6-methyl-2-pyridyl)-1H-pyrazol-4-yl]-1,5-naphthyridin-3-amine] | 25.1 to 158 nM | 0.0398 to 0.316 nM |
| Cc1cccc(-c2[nH]cnc2-c2ccc3ncc(-c4ccc(C(=O)OC5CNC5)cc4)cc3c2)n1 [Compound 663, azetidin-3-yl 4-[6-[5-(6-methyl-2-pyridyl)-1H-imidazol-4-yl]-3-quinolyl]benzoate] | 25.1 to 158 nM | 0.0398 to 0.316 nM |
| Cc1cccc(-c2n[nH]cc2-c2ccc3ncc(Nc4ccc(N5CCN(C)CC5)cc4)cc3c2)n1 [Compound 664, N-(4-(4-methylpiperazin-1-yl)phenyl)-6-(3-(6-methylpyridin-2-yl)-1H-pyrazol-4-yl)quinolin-3-amine] | 25.1 to 158 nM | 0.0398 to 0.316 nM |
| Cc1cccc(-c2[nH]cnc2-c2ccc3ncc(-c4cncc(C(=O)OCC5CNC5)c4)cc3c2)n1 [Compound 665, azetidin-3-ylmethyl 5-[6-[5-(6-methyl-2-pyridyl)-1H-imidazol-4-yl]-3-quinolyl]pyridine-3-carboxylate] | 200 to 1260 nM | 0.0398 to 0.316 nM |
| Cc1cccc(-c2n[nH]cc2-c2ccc3ncc(Nc4ccc(N5CCN(C)CC5)cn4)cc3c2)n1 [Compound 666, N-[5-(4-methylpiperazin-1-yl)-2-pyridyl]-6-[3-(6-methyl-2-pyridyl)-1H-pyrazol-4-yl]quinolin-3-amine] | 25.1 to 158 nM | 0.0398 to 0.316 nM |
| Cc1cccc(-c2[nH]cnc2-c2ccc3ncc(Nc4cnn(CCC5CCNCC5)c4)cc3c2)n1 [Compound 667, 6-[5-(6-methyl-2-pyridyl)-1H-imidazol-4-yl]-N-[1-[2-(4-piperidyl)ethyl]pyrazol-4-yl]quinolin-3-amine] | 200 to 1260 nM | 0.0398 to 0.316 nM |
| Cc1cccc(-c2n[nH]cc2-c2ccc3ncc(NCCN4CCNCC4)cc3n2)n1 [Compound 668, 6-[3-(6-methyl-2-pyridyl)-1H-pyrazol-4-yl]-N-(2-piperazin-1-ylethyl)-1,5-naphthyridin-3-amine] | 200 to 1260 nM | < 0.0316 nM |
| Cc1cccc(-c2n[nH]cc2-c2ccc3ncc(-c4cnn(C5COC5)c4)cc3n2)n1 [Compound 669, 2-[3-(6-methyl-2-pyridyl)-1H-pyrazol-4-yl]-7-[1-(oxetan-3-yl)pyrazol-4-yl]-1,5-naphthyridine] | < 20 nM | < 0.0316 nM |
| Cc1cccc(-c2[nH]cnc2-c2ccc3ncc(NCCN4CCC(C(=O)O)CC4)cc3c2)n1 [Compound 670, 1-[2-[[6-[5-(6-methyl-2-pyridyl)-1H-imidazol-4-yl]-3-quinolyl]amino]ethyl]piperidine-4-carboxylic acid] | 200 to 1260 nM | 0.0398 to 0.316 nM |
| Cc1cccc(-c2n[nH]cc2-c2ccc3ncc(-c4nc(CCN)c(C)[nH]4)cc3n2)n1 [Compound 671, 2-[5-methyl-2-[6-[3-(6-methyl-2-pyridyl)-1H-pyrazol-4-yl]-1,5-naphthyridin-3-yl]-1H-imidazol-4-yl]ethanamine] | 200 to 1260 nM | 0.0398 to 0.316 nM |
| CNCC1CN(c2cnc3ccc(-c4c[nH]nc4-c4cccc(C)n4)nc3c2)C1 [Compound 672, N-methyl-1-[1-[6-[3-(6-methyl-2-pyridyl)-1H-pyrazol-4-yl]-1,5-naphthyridin-3-yl]azetidin-3-yl]methanamine] | 25.1 to 158 nM | 0.0398 to 0.316 nM |
| COC(=O)Cn1cc(-c2cnc3ccc(-c4c[nH]nc4-c4cccc(C)n4)nc3c2)cn1 [Compound 673, methyl 2-[4-[6-[3-(6-methyl-2-pyridyl)-1H-pyrazol-4-yl]-1,5-naphthyridin-3-yl]pyrazol-1-yl]acetate] | 25.1 to 158 nM | 0.0398 to 0.316 nM |
| Cc1nc(-c2n[nH]cc2-c2ccc3ncc(-c4cccn(C)c4=O)cc3n2)ccc1F [Compound 674, 3-[6-[3-(5-fluoro-6-methyl-2-pyridyl)-1H-pyrazol-4-yl]-1,5-naphthyridin-3-yl]-1-methyl-pyridin-2-one] | < 20 nM | 0.0398 to 0.316 nM |
| CNC(=O)c1cnc2ccc(-c3cn[nH]c3-c3cccc(C)n3)nc2c1 [Compound 675, N-methyl-6-[5-(6-methyl-2-pyridyl)-lH-pyrazol-4-yl]-1,5-naphthyridine-3-carboxamide] | 25.1 to 158 nM | 0.0398 to 0.316 nM |
| Cc1cccc(-c2nc3ncccn3c2-c2ccc3ncc(-c4cn[nH]c4)cc3n2)n1 [Compound 676, 2-(2-(6-methylpyridin-2-yl)imidazo[1,2-a]pyrimidin-3-yl)-7-(1H-pyrazol-4-yl)-1,5-naphthyridine] | 25.1 to 158 nM | 0.0398 to 0.316 nM |
| Cc1cccc(-c2[nH]ncc2-c2ccc3ncc(-c4nnco4)cc3n2)n1 [Compound 677, 2-[6-[5-(6-methyl-2-pyridyl)-1H-pyrazol-4-yl]-1,5-naphthyridin-3-yl]-1,3,4-oxadiazole] | 25.1 to 158 nM | 0.0398 to 0.316 nM |
| Cc1cccc(-c2n[nH]cc2-c2ccc3ncc(-c4ccc5c(n4)CCNC5)cc3n2)n1 [Compound 678, 2-[3-(6-methyl-2-pyridyl)-1H-pyrazol-4-yl]-7-(5,6,7,8-tetrahydro-1,6-naphthyridin-2-yl)-1,5-naphthyridine] | 25.1 to 158 nM | < 0.0316 nM |
| Cc1cccc(-c2[nH]cnc2-c2ccc3ncc(NC[C@@H]4CCCN4)cc3c2)n1 [Compound 679, 6-[5-(6-methyl-2-pyridyl)-1H-imidazol-4-yl]-N-[[(2S)-pyrrolidin-2-yl]methyl]quinolin-3-amine] | 200 to 1260 nM | 0.0398 to 0.316 nM |
| Cc1cccc(-c2n[nH]cc2-c2ccc3ncc(-c4cn(-c5ccccn5)nn4)cc3n2)n1 [Compound 680, 2-[3-(6-methyl-2-pyridyl)-1H-pyrazol-4-yl]-7-[1-(2-pyridyl)triazol-4-yl]-1,5-naphthyridine] | 200 to 1260 nM | 0.398 to 3.16 nM |
| Cc1cccc(-c2n[nH]cc2-c2ccc3ncc(-c4cnc5n4CCN5)cc3n2)n1 [Compound 681, 7-(6,7-dihydro-5H-imidazo[1,2-a]imidazol-3-yl)-2-[3-(6-methyl-2-pyridyl)-1H-pyrazol-4-yl]-1,5-naphthyridine] | 25.1 to 158 nM | < 0.0316 nM |
| Cc1cccc(-c2[nH]cnc2-c2ccc3ncc(N4CCN[C@H](C(=O)O)C4)cc3c2)n1 [Compound 682, (2S)-4-[6-[5-(6-methyl-2-pyridyl)-1H-imidazol-4-yl]-3-quinolyl]piperazine-2-carboxylic acid] | 200 to 1260 nM | 0.398 to 3.16 nM |
| Cc1cccc(-c2nc3ccccn3c2-c2ccc3ncc(N4CCC(N(C)C)CC4)cc3n2)n1 [Compound 683, N,N-dimethyl-1-[6-[2-(6-methyl-2-pyridyl)imidazo[1,2-a]pyridin-3-yl]-1,5-naphthyridin-3-yl]piperidin-4-amine] | 25.1 to 158 nM | 0.0398 to 0.316 nM |
| Cc1cccc(-c2n[nH]cc2-c2ccc3ncc(CNC(C(=O)OC4CCCC4)c4ccccc4)cc3n2)n1 (stereo not shown) [Compound 684, cyclopentyl 2-[[6-[3-(6-methyl-2-pyridyl)-1H-pyrazol-4-yl]-1,5-naphthyridin-3-yl]methylamino]-2-phenyl-acetate] | 200 to 1260 nM | 3.98 to 31.6 nM |
| Cc1cccc(-c2n[nH]cc2-c2ccc3ncc(C4=CCC(N(C)C)CC4)cc3n2)n1 (stereo not shown) [Compound 685, N,N-dimethyl-4-[6-[3-(6-methyl-2-pyridyl)-1H-pyrazol-4-yl]-1,5-naphthyridin-3-yl]cyclohex-3-en-1-amine] | 25.1 to 158 nM | 0.0398 to 0.316 nM |
| Cc1cccc(-c2[nH]cnc2-c2ccc3ncc(-c4cccc(NC5CCNCC5)c4)cc3c2)n1 [Compound 686, N-[3-[6-[5-(6-methyl-2-pyridyl)-1H-imidazol-4-yl]-3-quinolyl]phenyl]piperidin-4-amine] | 25.1 to 158 nM | < 0.0316 nM |
| Cc1nc(-c2n[nH]cc2-c2ccc3ncc(N4CCN(C(C)C)CC4)cc3n2)ccc1F [Compound 687, 2-[3-(5-fluoro-6-methyl-2-pyridyl)-1H-pyrazol-4-yl]-7-(4-isopropylpiperazin-1-yl)-1,5-naphthyridine] | 25.1 to 158 nM | < 0.0316 nM |
| Cc1cccc(-c2[nH]cnc2-c2ccc3ncc(N4CCN(C)C(CC(=O)O)C4)cc3c2)n1 (stereo not shown) [Compound 688, 2-[1-methyl-4-[6-[5-(6-methyl-2-pyridyl)-1H-imidazol-4-yl]-3-quinolyl]piperazin-2-yl]acetic acid] | 1580 to 10000 nM | 0.0398 to 0.316 nM |
| Cc1cccc(-c2[nH]cnc2-c2ccc3ncc(N4CCNC(CC(=O)OC5CCNCC5)C4)cc3c2)n1 (stereo not shown) [Compound 689, 4-piperidyl 2-[4-[6-[5-(6-methyl-2-pyridyl)-1H-imidazol-4-yl]-3-quinolyl]piperazin-2-yl]acetate] | 200 to 1260 nM | 0.398 to 3.16 nM |
| Cc1cccc(-c2[nH]cnc2-c2ccc3ncc(N4CCNC(CC(=O)OCC(C)C)C4)cc3c2)n1 (stereo not shown) [Compound 690, isobutyl 2-[4-[6-[5-(6-methyl-2-pyridyl)-1H-imidazol-4-yl]-3-quinolyl]piperazin-2-yl]acetate] | 25.1 to 158 nM | 0.0398 to 0.316 nM |
